Like-named read-outs stand apart in the source and are kept apart here.
Assays:
Format in all cases: cell-based
EML4-ALK-BaF3 = target: T1, EML4-ALK-BaF3 (Homo sapiens, UniProt Q9UM73); assay: Growth inhibition of EML4-ALK transformed BaF3 cells (MTS); conditions: for IC50: EML4-ALK-BaF3 cells, 48 hours, MTS
T1 construct: expressed in transfected cells; host or cells: Ba/F3 cells; the other entry of the earlier key: EML4 (Q9HC35, Echinoderm microtubule-associated protein-like 4)
Procedure: (§1) If compounds can inhibit the activity of ALK kinase or the activity of ALK signaling pathway, they can inhibit the growth of ALK transformed Ba/F3 cells. […] The broad-spectrum toxicity of compounds can be evaluated by determining the effect of the compounds on the growth of wild type BaF3 cells.
(§2) 1) Medium: DMEM (Dulbecco's modified eagle medium) or RPMI1640 (containing 10% fetal bovine serum, 100 μg/mL ampicillin, 100 μg/mL streptomycin).)
(§3) Reagents: MTS solution (2 mg/mL MTS (3-(4,5-dimethylthiazol-2-yl)-5-(3-carboxymethoxyphenyl)-2-(4-sulfophenyl)-2H-tetrazolium, inner salt); 100 μg/mL PES ([…])).
(§4) 3) Test of compound: Transformed Ba/F3 cells (EML4-ALK-BaF3, EML4-ALK(L1196M)-BaF3, NPM-ALK-BaF3) (2×10^4/well) were distributed into 96-well plates, with volume of cell sap of 90 μL, 10 μL of compounds in gradient concentration (the highest concentration 10 was μM, followed by 1/3 step by step dilution, a total of 8 concentrations were set, the system contained 0.1% DMSO (dimethyl sulfoxide)). The cell plates mixed with compounds were cultured in a cell incubator (37° C.; 5% CO2) for 48 hours, and the added 20 μL of MTS reaction solution, mixed and incubated in cell incubator (37° C.; 5% CO2) for 1-4 hours. The OD value at a wavelength of 490 nm was measured using eliasa (VARIOSKAN FLASH, Thermo). Three parallels were set up for each group, with a final concentration of 0.1% DMSO as negative control, and with medium without cells and compounds as blank control.
(§5) 4) Calculation of IC50 value: the semi inhibitory concentration of the compound acting on the cells was calculated using GradPad Prism 5 software according to the cell inhibitory rate measured.

wild type BaF3 = assay: Growth inhibition of wild type BaF3 cells (broad-spectrum toxicity); conditions: Mus musculus, BaF3, 48 h, MTS
Procedure: (§6) The activity of compounds against ALK kinase was evaluated by inhibiting the growth of cellular ALK kinase EML4-ALK-BaF3, EML4-ALK (L1196M)-BaF3, NPM-ALK-BaF3, and wild type BaF3 (Proc. Natl. Acad. Sci. USA., 2006, 103, 3153-8.) The growth of cellular ALK kinase EML4-ALK-BaF3, EML4-ALK(L1196M)-BaF3, and NPM-ALK-BaF3 depends on their kinase activity. If compounds can inhibit the activity of ALK kinase or the activity of ALK signaling pathway, they can inhibit the growth of ALK transformed Ba/F3 cells. […] The broad-spectrum toxicity of compounds can be evaluated by determining the effect of the compounds on the growth of wild type BaF3 cells.
as §2, §3
as §4, with “control. The inhibition rate of cell growth was calculated by the following formula: Cell inhibition rate %=1−(OD experimental group−OD blank group)/(OD negative group−OD blank group)*100%” for “control.”
as §5

EML4-ALK (L1196M)-BaF3 = target: T2, EML4-ALK (L1196M)-BaF3 (Homo sapiens, UniProt Q9UM73, L1196M); assay: Growth inhibition of EML4-ALK (L1196M) transformed BaF3 cells (MTS); conditions: 48 hours
T2 construct: expressed in transfected cells; host or cells: Ba/F3 cells; the other entry of the earlier key: EML4 (Q9HC35, Echinoderm microtubule-associated protein-like 4)
Procedure: as §1, §2, §3, §4, §5

NPM-ALK-BaF3 = target: T3, NPM-ALK-BaF3 (Homo sapiens, UniProt Q9UM73); assay: Growth inhibition of NPM-ALK transformed BaF3 cells (MTS); conditions: 48 hours
T3 construct: expressed in transfected cells; host or cells: Ba/F3 cells; the other entry of the earlier key: NPM1 (P06748, Nucleophosmin)
Procedure: as §6, §2, §3
as §4, with “control. The inhibition rate of cell growth was calculated by the following formula: Cell inhibition rate %=1−(OD experimental group−OD blank group)/(OD negative group−OD blank group)*100%” for “control.”
as §5

[1] = Table 11, read-out: EML4-ALK (L1196M) (IC50 nM)
[2] = Table 12, read-out: L1196M (IC50 nM)

SMILES	IC50 (EML4-ALK-BaF3; Table 11) [nM]	IC50 (EML4-ALK (L1196M)-BaF3; [1]) [nM]	IC50 (NPM-ALK-BaF3; Table 11) [nM]	IC50 (EML4-ALK-BaF3; Table 12) [nM]	IC50 (EML4-ALK (L1196M)-BaF3; [2]) [nM]	IC50 (NPM-ALK-BaF3; Table 12) [nM]	targeting selectivity (EML4-ALK-BaF3; ratio of IC50 between wild-type BaF3 and ALK transformed BaF3 cells)	IC50 (wild type BaF3; Table 11) [nM]	IC50 (wild type BaF3; Table 12) [nM]
CC(C)S(=O)(=O)c1ccccc1Nc1nc(Nc2ccc(S(N)(=O)=O)cc2)nc2cc[nH]c12 [ID-5]	> 10000	> 10000	> 10000	–	–	–	–	> 10000	–
OC1CCN(c2ccc(Nc3nc(NC4CC4)c4[nH]ccc4n3)cc2)CC1 [IS-3]	4480	9710	> 10000	–	–	–	–	11800	–
COC(=O)c1cccc(Nc2nc(Nc3ccc(N4CCC(O)CC4)cc3)nc3ccn(C)c23)c1 [IIH-2]	–	–	–	1970	1810	4470	–	–	2830
CCNc1nc(Nc2ccc(N3CCC(O)CC3)cc2)nc2cc[nH]c12 [IR-3]	> 10000	> 10000	> 10000	–	–	–	–	> 10000	–
CSc1ccccc1CNc1nc(Nc2ccc(S(N)(=O)=O)cc2)nc2cc[nH]c12 [IL-4]	9510	> 10000	> 10000	–	–	–	–	> 10000	–
Cn1ccc2nc(Nc3ccc(S(N)(=O)=O)cc3)nc(NCc3ccccc3S(C)(=O)=O)c21 [IIK-4]	–	–	–	> 10000	> 10000	–	–	–	> 10000
CSc1ccccc1CNc1nc(Nc2ccc(S(N)(=O)=O)cc2)nc2ccn(C)c12 [III-3]	–	–	–	3200	4000	3710	–	–	~3340
Cn1ccc2nc(Nc3ccc(N4CCC(O)CC4)cc3)nc(NCc3ccccc3S(C)(=O)=O)c21 [IIK-3]	–	–	–	> 10000	> 10000	> 10000	–	–	> 10000
Cc1cc(Nc2nc(Nc3ccccc3S(=O)(=O)C(C)C)c3c(ccn3C)n2)c(OC(C)C)cc1C1CCN(C)CC1 [IID-8]	–	–	–	1760	4770	~3460	–	–	~8380
CSc1ccccc1Nc1nc(Nc2ccc(N3CCC(O)CC3)cc2)nc2ccn(C)c12 [IIA-3]	–	–	–	321	161	456	–	–	376
CC(C)S(=O)(=O)c1ccccc1CNc1nc(Nc2ccc(S(N)(=O)=O)cc2)nc2cc[nH]c12 [IO-4]	> 10000	> 10000	> 10000	–	–	–	–	> 10000	–
CC(C)Sc1ccccc1CNc1nc(Nc2ccc(S(N)(=O)=O)cc2)nc2ccn(C)c12 [IIJ-3]	–	–	–	> 10000	9700	> 10000	–	–	> 10000
CC(C)S(=O)(=O)c1ccccc1CNc1nc(Nc2ccc(N3CCC(O)CC3)cc2)nc2ccn(C)c12 [IIL-3]	–	–	–	> 10000	> 10000	7440	–	–	> 10000
CC(C)S(=O)(=O)c1ccccc1Nc1nc(Nc2ccc(N3CCC(O)CC3)cc2)nc2ccn(C)c12 [IID-3]	–	–	–	2160	6650	6990	–	–	> 10000

Further lines, with some results ahead:

IC50 (EML4-ALK-BaF3; Table 11) [nM]	IC50 (EML4-ALK (L1196M)-BaF3; [1]) [nM]	IC50 (NPM-ALK-BaF3; Table 11) [nM]	IC50 (EML4-ALK-BaF3; Table 12) [nM]	IC50 (EML4-ALK (L1196M)-BaF3; [2]) [nM]	IC50 (NPM-ALK-BaF3; Table 12) [nM]	targeting selectivity (EML4-ALK-BaF3; ratio of IC50 between wild-type BaF3 and ALK transformed BaF3 cells)	SMILES	IC50 (wild type BaF3; Table 11) [nM]	IC50 (wild type BaF3; Table 12) [nM]
–	–	–	~909	~2560	512	–	COc1cc(N2CCN(C)CC2)ccc1Nc1nc(Nc2ccccc2SC)c2c(ccn2C)n1 [IIA-1]	–	1550
–	–	–	~3150	~2950	~3420	–	COc1cc(N2CCC(N3CCN(C)CC3)CC2)ccc1Nc1nc(NCc2ccccc2S(C)(=O)=O)c2c(ccn2C)n1 [IIK-2]	–	~2950
–	–	–	~877	~883	519	–	CCOc1cc(C(=O)N2CCC(N3CCN(C)CC3)CC2)ccc1Nc1nc(Nc2ccccc2SC)c2c(ccn2C)n1 [IIA-5]	–	~336
238	488	1290	–	–	–	good targeting selectivity	COC(=O)c1cccc(Nc2nc(Nc3ccc(N4CCOCC4)cc3)nc3cc[nH]c23)c1 [II-5]	1060	–
–	–	–	~2700	2100	1980	–	COc1cc(N2CCN(C)CC2)ccc1Nc1nc(NCc2ccccc2S(C)(=O)=O)c2c(ccn2C)n1 [IIK-1]	–	3280
–	–	–	1510	~3510	~3460	–	COc1cc(N2CCC(N3CCN(C)CC3)CC2)ccc1Nc1nc(Nc2ccccc2S(C)(=O)=O)c2c(ccn2C)n1 [IIC-2]	–	5050
1720	3400	4830	–	–	–	–	COc1cc(N2CCN(C)CC2)ccc1Nc1nc(NCc2ccccc2S(=O)(=O)C(C)C)c2[nH]ccc2n1 [IO-1]	4080	–
> 10000	> 10000	> 10000	–	–	–	–	CN1CCN(c2ccc(Nc3nc(NCc4ccccc4S(C)(=O)=O)c4[nH]ccc4n3)cc2)CC1 [IN-5]	–	–
> 10000	> 10000	> 10000	–	–	–	–	CCNc1nc(Nc2ccc(N3CCC(N4CCN(C)CC4)CC3)cc2OC)nc2cc[nH]c12 [IR-2]	> 10000	–
–	–	–	1600	~3000	~3130	–	CCOc1cc(N2CCC(O)CC2)ccc1Nc1nc(Nc2ccccc2S(=O)(=O)C(C)C)c2c(ccn2C)n1 [IID-6]	–	> 10000
–	–	–	> 10000	> 10000	> 10000	–	CCOc1cc(N2CCC(O)CC2)ccc1Nc1nc(Nc2ccccc2S(C)(=O)=O)c2c(ccn2C)n1 [IIC-6]	–	> 10000
> 10000	> 10000	> 10000	–	–	–	–	CCNc1nc(Nc2ccc(N3CCN(C)CC3)cc2OC)nc2cc[nH]c12 [IR-1]	> 10000	–
> 10000	> 10000	> 10000	–	–	–	–	CNc1nc(Nc2ccc(C(=O)N3CCOCC3)cc2OC)nc2cc[nH]c12 [IQ-5]	> 10000	–
> 10000	> 10000	> 10000	–	–	–	–	COC(=O)c1ccccc1Sc1nc(Nc2ccc(N3CCN(C)CC3)cc2OC)nc2cc[nH]c12 [IU-1]	> 10000	–
~8710	4110	~8360	–	–	–	–	CNC(=O)c1ccccc1Nc1nc(Nc2ccc(N3CCC(N4CCCC4)CC3)cc2OC)nc2cc[nH]c12 [IJ-2]	~11700	–
4550	4340	8150	–	–	–	–	COC(=O)c1ccccc1Oc1nc(Nc2ccc(N3CCC(O)CC3)cc2)nc2cc[nH]c12 [IV-3]	8920	–
> 10000	> 10000	> 10000	–	–	–	–	COC(=O)c1ccccc1Nc1nc(Nc2ccc(N3CCN(C)CC3)cn2)nc2cc[nH]c12 [IG-13]	> 10000	–
669	451	~823	–	–	–	–	COC(=O)c1sccc1Nc1nc(Nc2ccc(N3CCC(N4CCN(C)CC4)CC3)cc2OC)nc2cc[nH]c12 [IK-2]	~913	–
~1260	884	1390	–	–	–	–	COC(=O)c1ccccc1Nc1nc(Nc2cc(C)c(C3CCN(C)CC3)cc2OC)nc2cc[nH]c12 [IG-14]	~2550	–
~2880	~2510	~2850	–	–	–	–	COC(=O)c1ccccc1Sc1nc(Nc2ccc(N3CCC(N4CCCC4)CC3)cc2OC)nc2cc[nH]c12 [IU-5]	~7720	–

Source: patent US10508118B2, “Pyrimidopyrrole compounds, method for preparing the same, pharmaceutical compositions comprising the same and uses thereof” (Xiamen University, priority 2015, dated 2019)
